From PubChem BioAssay AID1918942 (Molecular Pharmacology Branch, DTP, NCI, 2023)
Where “and” joins values, the source holds several entries; their conditions need not be identical. Equal values may be shown once.

System: 743489-274-T-PDC complex spheroid viability
Test: Anticancer human tumor 743489-274-T-PDC patient-derived renal cell carcinoma cell line growth inhibition
Conditions: for viability, T/C: stronger effect = lower value
In short: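 Drug combinations with the LSD1 inhibitor iadademstat tested on tumor cells co-cultured as spheroids with endothelial cells and mesenchymal stem cells. Concentrations descended in half-log increments from clinical Cmax or 10 microM.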

[1] = curve of first compound, second compound 0.1 µM
[2] = curve of first compound, second compound 0.316 µM
[3] = curve of first compound, second compound 1 µM
[4] = curve of first compound, second compound 3.16 µM
[5] = curve of first compound, second compound 10 µM
[6] = second compound 0.1 µM, first compound 0.00949 µM
[7] = second compound 0.1 µM, first compound 0.03 µM
[8] = second compound 0.1 µM, first compound 0.0949 µM
[9] = second compound 0.1 µM, first compound 0.3 µM
[10] = second compound 0.1 µM, first compound 0.949 µM
[11] = second compound 0.1 µM, first compound 3 µM
[12] = second compound 0.316 µM, first compound 0.00949 µM
[13] = second compound 0.316 µM, first compound 0.03 µM
[14] = second compound 0.316 µM, first compound 0.0949 µM
[15] = second compound 0.316 µM, first compound 0.3 µM
[16] = second compound 0.316 µM, first compound 0.949 µM
[17] = second compound 0.316 µM, first compound 3 µM
[18] = second compound 1 µM, first compound 0.00949 µM
[19] = second compound 1 µM, first compound 0.03 µM
[20] = second compound 1 µM, first compound 0.0949 µM
[21] = second compound 1 µM, first compound 0.3 µM
[22] = second compound 1 µM, first compound 0.949 µM
[23] = second compound 1 µM, first compound 3 µM
[24] = second compound 3.16 µM, first compound 0.00949 µM
[25] = second compound 3.16 µM, first compound 0.03 µM
[26] = second compound 3.16 µM, first compound 0.0949 µM
[27] = second compound 3.16 µM, first compound 0.3 µM
[28] = second compound 3.16 µM, first compound 0.949 µM
[29] = second compound 3.16 µM, first compound 3 µM
[30] = second compound 10 µM, first compound 0.00949 µM
[31] = second compound 10 µM, first compound 0.03 µM
[32] = second compound 10 µM, first compound 0.0949 µM
[33] = second compound 10 µM, first compound 0.3 µM
[34] = second compound 10 µM, first compound 0.949 µM
[35] = second compound 10 µM, first compound 3 µM
[36] = second compound 0.1 µM, first compound 0.00316 µM
[37] = second compound 0.1 µM, first compound 0.01 µM
[38] = second compound 0.1 µM, first compound 0.0316 µM
[39] = second compound 0.1 µM, first compound 0.1 µM
[40] = second compound 0.316 µM, first compound 0.00316 µM
[41] = second compound 0.316 µM, first compound 0.01 µM
[42] = second compound 0.316 µM, first compound 0.0316 µM
[43] = second compound 0.316 µM, first compound 0.1 µM
[44] = second compound 1 µM, first compound 0.00316 µM
[45] = second compound 1 µM, first compound 0.01 µM
[46] = second compound 1 µM, first compound 0.0316 µM
[47] = second compound 1 µM, first compound 0.1 µM
[48] = second compound 3.16 µM, first compound 0.00316 µM
[49] = second compound 3.16 µM, first compound 0.01 µM
[50] = second compound 3.16 µM, first compound 0.0316 µM
[51] = second compound 3.16 µM, first compound 0.1 µM
[52] = second compound 10 µM, first compound 0.00316 µM
[53] = second compound 10 µM, first compound 0.01 µM
[54] = second compound 10 µM, first compound 0.0316 µM
[55] = second compound 10 µM, first compound 0.1 µM
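Also: spheroids exposed to compounds for 7 days before readout.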
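For viability, T/C in this document: 100% = DMSO vehicle control wells.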

Nc1ccccc1NC(=O)c1ccc(CNC(=O)OCc2cccnc2)cc1 + NC1CCC(NC2CC2c2ccccc2)CC1
IC50 [1]: 0.932 µM
IC50 [2]: > 3 µM
IC50 [3]: 1.43 µM
IC50 [4]: 1.78 µM
IC50 [5]: 1.27 µM
viability, T/C [6]: 96.2%
viability, T/C [7]: 89.4%
viability, T/C [8]: 83.7%
viability, T/C [9]: 85.4%
viability, T/C [10]: 49.3%
viability, T/C [11]: 31.2%
viability, T/C [12]: 116%
viability, T/C [13]: 92.2%
viability, T/C [14]: 88.2%
viability, T/C [15]: 82.8%
viability, T/C [16]: 61.6%
viability, T/C [17]: 52.8%
viability, T/C [18]: 107%
viability, T/C [19]: 94.8%
viability, T/C [20]: 88.9%
viability, T/C [21]: 82.9%
viability, T/C [22]: 54.4%
viability, T/C [23]: 36.2%
viability, T/C [24]: 113%
viability, T/C [25]: 97.4%
viability, T/C [26]: 97%
viability, T/C [27]: 80.5%
viability, T/C [28]: 59.4%
viability, T/C [29]: 41%
viability, T/C [30]: 107%
viability, T/C [31]: 109%
viability, T/C [32]: 87.9%
viability, T/C [33]: 79.8%
viability, T/C [34]: 57.1%
viability, T/C [35]: 29.3%

Nc1ccccc1NC(=O)c1ccc(CNC(=O)OCc2cccnc2)cc1 + NC1CC1c1ccc(-c2cccc(O)c2)cc1
IC50 [1]: 0.678 µM
IC50 [2]: 0.773 µM
IC50 [3]: 0.642 µM
IC50 [4]: 1.01 µM
IC50 [5]: 1.32 µM
viability, T/C [6]: 93.2%
viability, T/C [7]: 88.5%
viability, T/C [8]: 87.5%
viability, T/C [9]: 62.6%
viability, T/C [10]: 45.8%
viability, T/C [11]: 29.2%
viability, T/C [12]: 95.7%
viability, T/C [13]: 86.8%
viability, T/C [14]: 84.5%
viability, T/C [15]: 65.8%
viability, T/C [16]: 45.5%
viability, T/C [17]: 40.3%
viability, T/C [18]: 98.6%
viability, T/C [19]: 87.5%
viability, T/C [20]: 83.4%
viability, T/C [21]: 62.3%
viability, T/C [22]: 43.2%
viability, T/C [23]: 24.6%
viability, T/C [24]: 92.8%
viability, T/C [25]: 84.5%
viability, T/C [26]: 81.6%
viability, T/C [27]: 72.5%
viability, T/C [28]: 49%
viability, T/C [29]: 36.5%
viability, T/C [30]: 95.5%
viability, T/C [31]: 87.5%
viability, T/C [32]: 77.9%
viability, T/C [33]: 70.1%
viability, T/C [34]: 58.4%
viability, T/C [35]: 35.4%

O=C(C=Cc1cccc(S(=O)(=O)Nc2ccccc2)c1)NO + NC1CCC(NC2CC2c2ccccc2)CC1
IC50 [1]: > 3 µM
IC50 [2]: 2.84 µM
IC50 [3]: 2.23 µM
IC50 [4]: > 3 µM
IC50 [5]: 1.91 µM
viability, T/C [6]: 103%
viability, T/C [7]: 94.4%
viability, T/C [8]: 84.1%
viability, T/C [9]: 67.9%
viability, T/C [10]: 81.7%
viability, T/C [11]: 62.1%
viability, T/C [12]: 102%
viability, T/C [13]: 96.5%
viability, T/C [14]: 87.8%
viability, T/C [15]: 80.9%
viability, T/C [16]: 69.3%
viability, T/C [17]: 47.4%
viability, T/C [18]: 100%
viability, T/C [19]: 107%
viability, T/C [20]: 98.5%
viability, T/C [21]: 78.7%
viability, T/C [22]: 78.5%
viability, T/C [23]: 41.2%
viability, T/C [24]: 108%
viability, T/C [25]: 105%
viability, T/C [26]: 95.5%
viability, T/C [27]: 78.2%
viability, T/C [28]: 69.2%
viability, T/C [29]: 51.9%
viability, T/C [30]: 109%
viability, T/C [31]: 96.2%
viability, T/C [32]: 106%
viability, T/C [33]: 74.9%
viability, T/C [34]: 65.6%
viability, T/C [35]: 41.4%

CC(C)c1c(-c2ccccc2)nc2c(C#N)c[nH]n2c1=O
viability, T/C (compound 0.0316 µM): 106% and 94.8%
viability, T/C (compound 0.1 µM): 100% and 102%
viability, T/C (compound 0.316 µM): 86.4% and 102%
viability, T/C (compound 1 µM): 96% and 107%
viability, T/C (compound 3.16 µM): 93.2% and 93.5%
IC50 (curve of compound): > 10 µM

CC(C)CC(NC(=O)CNC(=O)c1cc(Cl)ccc1Cl)B1OC(=O)CC(CC(=O)O)(C(=O)O)O1 (stereo unspecified) + NC1CC1c1ccc(-c2cccc(O)c2)cc1
IC50 [1]: 0.0831 µM
IC50 [2]: > 0.1 µM
IC50 [3]: 0.0845 µM
IC50 [4]: > 0.1 µM
IC50 [5]: 0.0499 µM
viability, T/C (second compound 0.1 µM, first compound 0.000316 µM): 105%
viability, T/C (second compound 0.1 µM, first compound 0.001 µM): 114%
viability, T/C [36]: 97.8%
viability, T/C [37]: 80.7%
viability, T/C [38]: 74.3%
viability, T/C [39]: 45%
viability, T/C (second compound 0.316 µM, first compound 0.000316 µM): 102%
viability, T/C (second compound 0.316 µM, first compound 0.001 µM): 102%
viability, T/C [40]: 94.5%
viability, T/C [41]: 77.6%
viability, T/C [42]: 76.5%
viability, T/C [43]: 52.8%
viability, T/C (second compound 1 µM, first compound 0.000316 µM): 103%
viability, T/C (second compound 1 µM, first compound 0.001 µM): 106%
viability, T/C [44]: 104%
viability, T/C [45]: 80%
viability, T/C [46]: 66.1%
viability, T/C [47]: 46.6%
viability, T/C (second compound 3.16 µM, first compound 0.000316 µM): 90%
viability, T/C (second compound 3.16 µM, first compound 0.001 µM): 105%
viability, T/C [48]: 102%
viability, T/C [49]: 68.2%
viability, T/C [50]: 60.8%
viability, T/C [51]: 45.2%
viability, T/C (second compound 10 µM, first compound 0.000316 µM): 95.8%
viability, T/C (second compound 10 µM, first compound 0.001 µM): 108%
viability, T/C [52]: 101%
viability, T/C [53]: 80.1%
viability, T/C [54]: 59.7%
viability, T/C [55]: 37.7%

O=C(C=Cn1cnc(-c2cc(C(F)(F)F)cc(C(F)(F)F)c2)n1)NNc1cnccn1 + NC1CC1c1ccc(-c2cccc(O)c2)cc1
IC50 [1]: > 1 µM
IC50 [2]: > 1 µM
IC50 [3]: > 1 µM
IC50 [4]: > 1 µM
IC50 [5]: > 1 µM
viability, T/C [36]: 97.6%
viability, T/C [37]: 103%
viability, T/C [38]: 113%
viability, T/C [39]: 85.8%
viability, T/C (second compound 0.1 µM, first compound 0.316 µM): 97.9%
viability, T/C (second compound 0.1 µM, first compound 1 µM): 86.2%
viability, T/C [40]: 102%
viability, T/C [41]: 99.8%
viability, T/C [42]: 108%
viability, T/C [43]: 99.6%
viability, T/C (second compound 0.316 µM, first compound 0.316 µM): 76.4%
viability, T/C (second compound 0.316 µM, first compound 1 µM): 74.6%
viability, T/C [44]: 99.1%
viability, T/C [45]: 103%
viability, T/C [46]: 118%
viability, T/C [47]: 88%
viability, T/C (second compound 1 µM, first compound 0.316 µM): 89.4%
viability, T/C (second compound 1 µM, first compound 1 µM): 67.4%
viability, T/C [48]: 98.7%
viability, T/C [49]: 105%
viability, T/C [50]: 119%
viability, T/C [51]: 91.3%
viability, T/C (second compound 3.16 µM, first compound 0.316 µM): 74.6%
viability, T/C (second compound 3.16 µM, first compound 1 µM): 69.5%
viability, T/C [52]: 96.2%
viability, T/C [53]: 101%
viability, T/C [54]: 102%
viability, T/C [55]: 98.6%
viability, T/C (second compound 10 µM, first compound 0.316 µM): 86.1%
viability, T/C (second compound 10 µM, first compound 1 µM): 57.4%
